For five compounds, inhibition and IC50 results are on record in ChEMBL document CHEMBL4406797, “Histone acetyltransferase inhibitors: An overview in synthesis, structure-activity relationship and molecular mechanism” (Eur J Med Chem, 2019).

In experiment [1] the target is T1, Histone acetyltransferase KAT2B (Homo sapiens, UniProt Q92831). Description: Inhibition of recombinant GST-tagged PCAF (32 residues) (unknown origin) expressed in Escherichia coli assessed as reduction in H4K8 acetylation using radiolabelled acetyl-CoA as substrate after 20 mins by TopCount scintillation counting analysis relative to control.
Target sequence in this assay (Q92831 whole entry, looked up): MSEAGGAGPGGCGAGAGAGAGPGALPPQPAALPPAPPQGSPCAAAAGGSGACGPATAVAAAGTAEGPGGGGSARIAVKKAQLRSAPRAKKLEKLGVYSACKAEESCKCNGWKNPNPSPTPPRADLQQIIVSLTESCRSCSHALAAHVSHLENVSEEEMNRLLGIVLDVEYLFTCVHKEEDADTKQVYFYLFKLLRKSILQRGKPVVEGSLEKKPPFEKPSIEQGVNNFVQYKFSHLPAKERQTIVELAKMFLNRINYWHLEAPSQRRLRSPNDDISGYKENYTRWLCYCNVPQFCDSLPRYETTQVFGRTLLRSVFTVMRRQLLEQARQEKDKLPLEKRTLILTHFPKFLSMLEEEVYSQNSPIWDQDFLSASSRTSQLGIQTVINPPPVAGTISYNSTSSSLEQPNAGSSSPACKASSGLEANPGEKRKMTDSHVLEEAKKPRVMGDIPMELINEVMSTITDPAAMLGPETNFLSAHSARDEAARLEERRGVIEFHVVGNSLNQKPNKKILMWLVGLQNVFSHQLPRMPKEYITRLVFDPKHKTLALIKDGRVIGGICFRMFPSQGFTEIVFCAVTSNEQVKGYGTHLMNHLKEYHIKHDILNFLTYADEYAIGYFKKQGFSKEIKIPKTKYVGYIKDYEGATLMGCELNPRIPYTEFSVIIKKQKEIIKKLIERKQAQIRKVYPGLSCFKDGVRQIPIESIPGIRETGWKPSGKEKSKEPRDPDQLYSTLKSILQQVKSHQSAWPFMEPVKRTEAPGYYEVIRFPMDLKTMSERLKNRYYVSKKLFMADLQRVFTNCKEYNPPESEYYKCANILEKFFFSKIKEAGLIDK
For experiment [2], the target named is T1, Histone acetyltransferase KAT2B. Kind of experiment: Inhibition of recombinant GST-tagged PCAF (32 residues) (unknown origin) expressed in Escherichia coli assessed as reduction in H3K9 acetylation using radiolabelled acetyl-CoA as substrate after 20 mins by TopCount scintillation counting analysis relative to control.
Target sequence in this assay (Q92831 whole entry, looked up): as above
The target is the same in experiment [3]. Kind of experiment: Inhibition of recombinant GST-tagged PCAF (32 residues) (unknown origin) expressed in Escherichia coli using radiolabelled acetyl-CoA as substrate after 20 mins by TopCount scintillation counting analysis.
Target sequence in this assay (Q92831 whole entry): as the sequence (Q92831 whole entry, looked up) above
Experiment [4] deals with T2, Histone acetyltransferase KAT7 (Homo sapiens, UniProt O95251). Kind of experiment: Inhibition of KAT7 (unknown origin).
Experiment [5] addresses Histone acetyltransferase KAT5 (Homo sapiens, UniProt Q92993). Kind of experiment: Inhibition of KAT5 (unknown origin).
The target in experiment [6] is T2, Histone acetyltransferase KAT7. To be noted: 10 uM.
For experiment [7] the target is unchanged. To be noted: 10 uM. This is another data set of the same source.
Experiment [8] is described as follows: Inhibition of HAT (unknown origin). More on the design: species or system Homo sapiens.
Experiment [9] concerns A549. Kind of experiment: Cytotoxicity against human A549 cells after 48 hrs by MTT assay. It is filed as functional, cell-based. To be noted: A549, 48 h. (In general: Tetrazolium assays rely on reduction of a dye to a coloured formazan, in cell work by metabolically active cells.)
The target of experiment [10] is CREB-binding protein (Homo sapiens, UniProt Q92793). Kind of experiment: Inhibition of CBP BHC domain (unknown origin).

Converted amounts (≈) assume the structure as drawn.

T2 sequence (O95251 whole entry): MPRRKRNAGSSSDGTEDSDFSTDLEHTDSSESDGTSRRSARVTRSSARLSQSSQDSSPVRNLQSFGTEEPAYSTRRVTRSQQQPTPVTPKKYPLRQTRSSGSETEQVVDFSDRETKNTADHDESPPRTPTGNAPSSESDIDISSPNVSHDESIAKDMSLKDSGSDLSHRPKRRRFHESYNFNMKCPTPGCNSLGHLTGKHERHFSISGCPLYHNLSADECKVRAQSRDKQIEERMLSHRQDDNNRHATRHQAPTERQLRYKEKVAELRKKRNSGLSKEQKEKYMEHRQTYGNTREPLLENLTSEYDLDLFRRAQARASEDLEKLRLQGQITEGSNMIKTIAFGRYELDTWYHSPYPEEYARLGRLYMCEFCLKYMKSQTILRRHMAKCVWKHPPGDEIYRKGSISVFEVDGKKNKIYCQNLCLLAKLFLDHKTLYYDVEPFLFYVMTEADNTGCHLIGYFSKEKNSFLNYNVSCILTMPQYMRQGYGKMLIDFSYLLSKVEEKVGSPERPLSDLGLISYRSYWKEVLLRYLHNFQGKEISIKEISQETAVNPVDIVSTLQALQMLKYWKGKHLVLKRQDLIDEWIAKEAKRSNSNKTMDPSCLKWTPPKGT
Chain of Histone acetyltransferase KAT5 (Q92993 whole entry): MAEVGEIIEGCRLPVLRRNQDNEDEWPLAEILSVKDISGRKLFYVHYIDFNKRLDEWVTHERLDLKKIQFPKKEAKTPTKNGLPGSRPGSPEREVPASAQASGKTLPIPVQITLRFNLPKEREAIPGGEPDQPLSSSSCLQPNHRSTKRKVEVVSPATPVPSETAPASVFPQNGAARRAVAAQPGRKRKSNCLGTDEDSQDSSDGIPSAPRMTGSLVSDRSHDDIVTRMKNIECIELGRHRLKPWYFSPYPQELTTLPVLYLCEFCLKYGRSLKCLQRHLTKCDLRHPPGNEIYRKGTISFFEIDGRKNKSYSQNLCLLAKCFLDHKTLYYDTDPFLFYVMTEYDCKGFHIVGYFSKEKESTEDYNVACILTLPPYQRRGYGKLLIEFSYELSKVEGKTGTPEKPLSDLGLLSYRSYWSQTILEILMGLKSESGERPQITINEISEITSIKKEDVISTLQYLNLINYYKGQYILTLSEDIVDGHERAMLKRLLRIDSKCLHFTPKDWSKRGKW
Chain of CREB-binding protein (Q92793 whole entry, the tested form may be a part): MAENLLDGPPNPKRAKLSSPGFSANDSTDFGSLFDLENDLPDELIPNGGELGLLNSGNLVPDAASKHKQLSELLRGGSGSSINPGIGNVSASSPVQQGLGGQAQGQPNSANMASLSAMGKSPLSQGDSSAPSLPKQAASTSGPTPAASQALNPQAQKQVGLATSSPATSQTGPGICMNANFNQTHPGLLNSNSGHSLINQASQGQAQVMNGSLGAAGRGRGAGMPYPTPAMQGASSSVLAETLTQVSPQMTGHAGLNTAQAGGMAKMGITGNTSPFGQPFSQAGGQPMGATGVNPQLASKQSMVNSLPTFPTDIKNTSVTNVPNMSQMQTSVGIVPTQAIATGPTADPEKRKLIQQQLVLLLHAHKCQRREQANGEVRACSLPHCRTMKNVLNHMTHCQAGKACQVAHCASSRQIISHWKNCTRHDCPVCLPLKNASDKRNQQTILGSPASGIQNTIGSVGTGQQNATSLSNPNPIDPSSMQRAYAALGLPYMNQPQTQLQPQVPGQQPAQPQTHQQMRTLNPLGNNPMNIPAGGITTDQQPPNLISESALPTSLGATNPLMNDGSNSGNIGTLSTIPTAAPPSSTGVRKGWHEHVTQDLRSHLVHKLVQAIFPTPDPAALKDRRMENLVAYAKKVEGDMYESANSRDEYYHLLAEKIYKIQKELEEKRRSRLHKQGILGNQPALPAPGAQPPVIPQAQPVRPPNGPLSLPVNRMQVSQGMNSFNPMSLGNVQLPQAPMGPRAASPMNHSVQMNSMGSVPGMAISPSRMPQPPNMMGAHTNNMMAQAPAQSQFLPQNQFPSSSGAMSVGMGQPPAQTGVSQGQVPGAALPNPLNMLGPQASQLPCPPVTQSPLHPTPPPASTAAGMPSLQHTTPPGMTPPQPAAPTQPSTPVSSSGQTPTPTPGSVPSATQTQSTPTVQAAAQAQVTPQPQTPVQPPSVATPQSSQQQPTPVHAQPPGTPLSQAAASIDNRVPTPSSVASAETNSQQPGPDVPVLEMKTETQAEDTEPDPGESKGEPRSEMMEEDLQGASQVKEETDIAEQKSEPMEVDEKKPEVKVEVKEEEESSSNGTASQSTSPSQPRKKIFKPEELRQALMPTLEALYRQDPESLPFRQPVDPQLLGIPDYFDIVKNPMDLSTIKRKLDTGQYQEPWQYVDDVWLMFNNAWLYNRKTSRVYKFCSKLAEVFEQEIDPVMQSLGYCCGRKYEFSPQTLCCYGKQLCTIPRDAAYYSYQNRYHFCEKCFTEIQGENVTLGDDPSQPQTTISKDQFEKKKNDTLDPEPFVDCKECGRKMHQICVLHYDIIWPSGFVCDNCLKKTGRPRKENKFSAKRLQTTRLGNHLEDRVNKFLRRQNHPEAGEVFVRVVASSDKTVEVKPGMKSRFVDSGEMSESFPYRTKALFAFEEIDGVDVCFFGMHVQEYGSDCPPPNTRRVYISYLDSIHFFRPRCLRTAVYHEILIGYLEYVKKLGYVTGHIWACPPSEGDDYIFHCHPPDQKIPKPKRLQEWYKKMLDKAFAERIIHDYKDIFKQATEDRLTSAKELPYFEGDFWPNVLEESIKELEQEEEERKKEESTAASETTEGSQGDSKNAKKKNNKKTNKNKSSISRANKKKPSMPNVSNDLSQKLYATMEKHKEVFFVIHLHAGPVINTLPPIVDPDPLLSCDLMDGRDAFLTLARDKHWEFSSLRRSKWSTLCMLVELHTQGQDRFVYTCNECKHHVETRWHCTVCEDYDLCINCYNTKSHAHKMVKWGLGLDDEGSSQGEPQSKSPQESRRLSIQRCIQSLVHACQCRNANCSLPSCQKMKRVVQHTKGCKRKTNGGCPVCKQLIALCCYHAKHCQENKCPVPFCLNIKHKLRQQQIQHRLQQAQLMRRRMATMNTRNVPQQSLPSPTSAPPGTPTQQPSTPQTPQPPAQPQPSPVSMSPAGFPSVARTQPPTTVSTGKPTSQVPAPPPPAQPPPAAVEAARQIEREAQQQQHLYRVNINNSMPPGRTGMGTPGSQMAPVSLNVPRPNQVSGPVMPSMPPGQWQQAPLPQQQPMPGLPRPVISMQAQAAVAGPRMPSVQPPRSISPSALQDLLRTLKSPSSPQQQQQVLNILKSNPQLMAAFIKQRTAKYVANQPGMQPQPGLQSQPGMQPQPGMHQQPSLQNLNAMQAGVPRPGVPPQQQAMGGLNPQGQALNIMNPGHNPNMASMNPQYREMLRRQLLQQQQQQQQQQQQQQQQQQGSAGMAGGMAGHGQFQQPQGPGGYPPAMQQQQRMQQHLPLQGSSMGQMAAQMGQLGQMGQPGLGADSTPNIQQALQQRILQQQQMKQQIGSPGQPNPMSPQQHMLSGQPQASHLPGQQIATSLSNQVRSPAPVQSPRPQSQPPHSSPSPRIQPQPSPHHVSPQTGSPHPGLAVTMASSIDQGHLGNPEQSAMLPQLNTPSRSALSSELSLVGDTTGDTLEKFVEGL

As a reminder, the inhibition is the change of the read-out against control, counted positive when it falls. The IC50 is the point on the concentration scale where inhibition reaches its midpoint. Consider `O=c1cc(Cl)sn1-c1ccc([N+](=O)[O-])cc1`, for which the values for the inhibition in experiment [1] and in experiment [2] were 55.5% and 38.6%, respectively. Moreover, in experiment [3], the IC50 was 2200 nM.
With `O=C(NNS(=O)(=O)c1ccc2ccccc2c1)c1ccccc1F`, the IC50 in experiment [4] and in experiment [5] was greater than 200 µM in each case. Further, the inhibition in [6] and in [7] was 49% each time.
In experiment [8], `C#CCN(Cc1ccc2[nH]c(N)nc(=O)c2c1)c1ccc(C(=O)N[C@@H](CCC(=O)O)C(=O)O)cc1` showed an IC50 of 225 nM.
For `COc1cc(OC)cc(C(=O)Nc2ccc3c(C)c(C(=O)c4cc(OC)ccc4OC)oc3c2)c1`, the IC50 in experiment [9] was found to be 58.3 µg/mL (≈ 123 µM).
In experiment [10], `CC1=NN(c2ccc(C(=O)O)cc2)C(=O)/C1=C/c1ccc(-c2cc(C)c(C)cc2[N+](=O)[O-])o1` gave a concentration for half-maximal inhibition (IC50) of 2.6 nM.
